Columns and labels:
SD rats = test: Vogel drinking conflict experiment in rats, single administration; format: in vivo; conditions: for Number of times of drinking water: 10 mg/kg i.g., 30 min after single dose, punishment stage 3 min, n = 8; for anxiolytic activity in drinking conflict experiment vs solvent control group: single intragastric administration of 20 mg/kg
Method: 75 male SD rats, with the body weight of 180-220 g, were fed adaptively for 1 week, water deprived for 24 h for training period test. The animals screened to be qualified were randomly divided into 7 groups (a solvent control group, estazolam group, compound M2 group, compound II-3 group, compound II-4 group, compound II-5 group and compound II-10 group) according to their body weight, with 8 rats in each group. […] results of 3.1: the positive drug estazolam was administered intragastrically at 1.24 mg/kg; and the solvent control group was gavaged with an equal volume of solvent. The grouped animals were continued to be water deprived for 24 h and were given a single dose, and tested in a punishment experiment 30 min after the single dose.
The experiment was carried out in two stages. The first stage is a training stage, in which 24 h after water deprivation, animals were placed in an operation box separately, and were allowed to fully explore until they found the bottle mouth and started to lick water (with an intensity of electric shock being 0 mA), a counter automatically recorded the number of licks within 3 min, and the animals that licked water less than 300 times were eliminated.
Observation index: the number of water licks of rats in the punishment stage.
(§1) Data was expressed as mean±standard (mean±SD) difference, and statistics of data differences were made by one-way analysis of variance (ANOVA) or nonparametric test, and differences between groups were determined by P<0.05.

[1] = tested on: 5-HT reuptake in rat brain synaptosomes; test: 3H-5-HT reuptake by rat brain synaptosomes; format: biochemical; conditions: 3H-5HT 10 nM, read-out: 5-HT inhibition rate % IC50
Excerpt: At present, it is believed that absolute or relative deficiencies of the central monoamine neurotransmitters 5-hydroxytryptamine (5-HT), norepinephrine (NA) and dopamine (DA) are closely related to depression and anxiety.
Synaptosomes were separated using methods in literature to prepare brain synaptosomes. SD rats were rapidly decapitated with a small animal decapitator. After decapitation, brains were taken out quickly and precooled in an ice-water mixture, and the pia mater and vascular tissue were removed. Brain tissue was taken out. 10 times volume (ml/g) of 10 mM Tris HCl buffer (containing 0.32 M sucrose, pH 7.4) was added, an ultrasonic cell pulverizer was used for homogenization (maintaining at a low temperature), and the brain tissue was homogenized and centrifuged for 10 min (4° C., 1,000 g). After balanced centrifugation (1500 g, 10 min) at 4° C., precipitate was discarded, then supernatant was taken, and centrifugation (20000 g) was performed again for 30 min. The supernatant was discarded and the precipitate, i.e. crude extract of synaptic corpuscles, was retained. […]
The percentage inhibition of isotope ligand binding by each compound was calculated according to the following equation: […]

C57 BL/6 mice = test: Mice tail suspension test after single oral administration; format: in vivo; conditions: 30 min after single administration; for Immobility time within 6 min: n = 10, mean ± SD
Excerpt: “Behavioral despair” models were developed by Porsolt et al. in 1977, including rats and mice forced swimming models and mice tail suspension models, which were acute stress models. Mice tail suspension experiment was a simple and easy-to-implement experimental method for evaluating antidepressant drugs introduced by Stern et al. in 1985, and its principle was the same as that of forced swimming “immobility” experiment.
40 mice were divided into 4 groups according to the Excel complete random grouping method, with 10 animals in each group. […] Therefore, in this experimental study, with 30 mg/kg as the low dosage of compound M2, 60 mg/kg was set as the high dosage of compound M2 to conduct research in comparison with 60 mg/kg compound I-5.
Each test group was administered intragastrically (i.g.) at 0.2 ml/10 g body weight.
Mice tail suspension test was carried out 30 min after a single oral administration, and the tail suspension lasted for 6 min. The immobility time of mice within 6 min was recorded.
as §1

mice = conditions: Patent C; cited from earlier work

IC50 [1] [µM] | Compound | Number of times of drinking water (SD rats) | anxiolytic activity in drinking conflict experiment vs solvent control group (SD rats) | Immobility time within 6 min (C57 BL/6 mice; 30 mg/kg i.g.) [s] | effect on immobility time of mice in tail suspension vs blank group (C57 BL/6 mice; 30 mg/kg) | Immobility time within 6 min (C57 BL/6 mice; 60 mg/kg i.g.) [s] | effect on immobility time of mice in tail suspension vs blank group (C57 BL/6 mice; 60 mg/kg) | effective anxiolytic dosage in mice elevated plus maze experiment (mice) [mg/kg]
0.0989 ± 0.00242 | NC(=O)/C=C/c1cc2c(c(C(F)(F)F)c1)OCO2 [Compound M2] | 527.26 ± 143.66 | significant anxiolytic activity | 183.9 ± 43.5 | no statistically significant difference | 171.8 ± 21.7 | significantly shortened | 
0.0185 ± 0.00247 | CC(C)CNC(=O)/C=C/c1cc2c(c(C(F)(F)F)c1)OCO2 [Compound I-5] | 478.02 ± 106.32 | significant anxiolytic activity |  |  | 218.0 ± 35.3 | not significantly affected | 10

Source: patent publication US20240217946A1, “ANTIDEPRESSANT AND ANXIOLYTIC SUBSTITUTED CINNAMAMIDE COMPOUND” (TASLY PHARMACEUTICAL GROUP CO., LTD., priority 2021, published 2024)
